BindingDB's records for doi:10.1002/cbic.201600598 (Griffith University, 2017)

Target: Carbonic anhydrase 2 (Homo sapiens, UniProt P00918)
Experiment: Fluorescence-Based CA II Binding Assay
Details: pH 7; 25 °C
Procedure: The assay was performed according to a previously reported protocol.[Banerjee et al., Biochemistry, 44:3673-3682] DNSA stock solution was prepared at 1 mm in DMSO/water (1:1). CA II (1 mm) was added to the test probe (over a 0.1-100 mm concentration range) in HEPES buffer [HEPES (25 mm) with acetonitrile (10 %), pH 7.0] and mixed well. DNSA (0.1 mm) was added, and the resulting solution was incubated at RT for 10 min and then transferred into a black-wall 96-well plate (final volume […]). The fluorescence was measured with a Spectra Max 250 plate reader (Molecular Devices, Sunnyvale, CA, USA) at an excitation of 285 nm and emission of 465 nm at 25 °C.

Row | SMILES | IC50 [µM]
1 | C#CCOCCOCCOCCOCCOCCC(=O)Nc1ccc(C(=O)c2ccc(NC(=O)CCCC(=O)Nc3ccc(S(N)(=O)=O)cc3)cc2)cc1 [N-{4-[4-(4,7,10,13,16-Pentaoxanonadec-18-ynamido)benzoyl]-phenyl}-N’-(4-sulfamoylphenyl)pentanediamide (4)] | 0.36
2 | C#CCOCCOCCOCCOCCOCCC(=O)N[C@@H](Cc1cn(-c2ccc(C(=O)c3ccccc3)cc2)nn1)C(=O)Nc1ccc(S(N)(=O)=O)cc1 [N-[(1S)-2-[1-(4-Benzoylphenyl)-1H-1,2,3-triazol-4-yl]-1-[(4-sulfamoylphenyl)carbamoyl]ethyl]-4,7,10,13,16-pentaoxanonadec-18-ynamide (9)] | 1.55
3 | C#CCOCCOCCOCCOCCNC(=O)c1ccc(S(N)(=O)=O)cc1 [N-(3,6,9,12-Tetraoxapentadec-14-ynyl)-4-sulfamoylbenzamide (13)] | 0.288
4 | C#CCOCCOCCOCCOCCOCCC(=O)Nc1ccc(C(=O)c2ccc(NC(=O)CCCC(=O)Nc3cccc(S(N)(=O)=O)c3)cc2)cc1 [N-{4-[4-(4,7,10,13,16-Pentaoxanonadec-18-ynamido)benzoyl]-phenyl}-N’-(3-sulfamoylphenyl)pentanediamide (5)] | 0.914
5 | CCCOCCOCCOC#COCCOCCC(=O)N[C@@H](Cc1cn(-c2ccc(C(=O)c3ccccc3)cc2)nn1)C(=O)Nc1ccccc1 [N-[(1S)-2-[1-(4-Benzoylphenyl)-1H-1,2,3-triazol-4-yl]-1-(phenylcarbamoyl)ethyl]-4,7,10,13,16-pentaoxanonadec-8-ynamide (15)] | > 5000
6 | C#CCOCCOCCOCCOCCOCCC(=O)Nc1ccc(C(=O)c2ccc(NC(=O)CCNC(=O)c3ccc(S(N)(=O)=O)cc3)cc2)cc1 [N-[4-(4-{3-[(4-Sulfamoylphenyl)formamido]propanamido}benzoyl)phenyl]-4,7,10,13,16-pentaoxanonadec-18-ynamide (1)] | 0.216
7 | C#CCOCCOCCOCCOCCOCCC(=O)Nc1ccc(C(=O)c2ccc(NC(=O)CCCC(=O)NCCc3ccc(S(N)(=O)=O)cc3)cc2)cc1 [N-{4-[4-(4,7,10,13,16-Pentaoxanonadec-18-ynamido)benzoyl]-phenyl}-N’-[2-(4-sulfamoylphenyl)ethyl]pentanediamide (2)] | 0.502
8 | C#CCOCCOCCOCCOCCOCCC(=O)N[C@@H](Cc1cn(-c2ccc(C(=O)c3ccccc3)cc2)nn1)C(=O)NCc1ccc(S(N)(=O)=O)cc1 [N-[(1S)-2-[1-(4-Benzoylphenyl)-1H-1,2,3-triazol-4-yl]-1-{[(4-sulfamoylphenyl)methyl]carbamoyl}ethyl]-4,7,10,13,16-pentaoxanonadec-18-ynamide (8)] | 3.1
9 | C#CCOCCOCCOCCOCCOCCC(=O)N[C@@H](Cc1cn(-c2ccc(C(=O)c3ccccc3)cc2)nn1)C(=O)NCCc1ccc(S(N)(=O)=O)cc1 [N-[(1S)-2-[1-(4-Benzoylphenyl)-1,2,3-triazol-4-yl]-1-{[2-(4-sulfamoylphenyl)ethyl]carbamoyl}ethyl]-4,7,10,13,16-pentaoxanonadec-18-ynamide (7)] | 0.604

Other lines, results leading:

Row | IC50 [µM] | SMILES
10 | 1.22 | C#CCOCCOCCOCCOCCOCCC(=O)Nc1ccc(C(=O)c2ccc(NC(=O)CCCC(=O)NCc3ccc(S(N)(=O)=O)cc3)cc2)cc1 [N-{4-[4-(4,7,10,13,16-Pentaoxanonadec-18-ynamido)benzoyl]-phenyl}-N’-[(4-sulfamoylphenyl)methyl]pentanediamide (3)]
11 | 2.03 | C#CCOCCOCCOCCOCCOCCC(=O)N[C@@H](Cc1cn(-c2ccc(C(=O)c3ccccc3)cc2)nn1)C(=O)Nc1cccc(S(N)(=O)=O)c1 [N-{(1S)-2-[1-(4-Benzoylphenyl)-1H-1,2,3-triazol-4-yl]-1-[(3-sulfamoylphenyl)carbamoyl]ethyl}-4,7,10,13,16-pentaoxanonadec-18-ynamide (10)]
12 | 0.8 | C#CCOCCOCCOCCOCCOCCC(=O)Nc1ccc(C(=O)c2ccc(NC(=O)c3ccc(S(N)(=O)=O)cc3)cc2)cc1 [N-{4-[4-(4-Sulfamoylbenzamido)benzoyl]phenyl}-4,7,10,13,16-pentaoxanonadec-18-ynamide (6)]
13 | 0.139 | C#CCOCCOCCOCCOCCOCCC(=O)N[C@@H](Cc1cn(-c2ccc(C(=O)c3ccccc3)cc2)nn1)C(=O)Nc1nnc(S(N)(=O)=O)s1 [N-{(1S)-2-[1-(4-Benzoylphenyl)-1H-1,2,3-triazol-4-yl]-1-[(5-sulfamoyl-1,3,4-thiadiazol-2-yl)carbamoyl]ethyl}-4,7,10,13,16-pentaoxanonadec-18-ynamide (11)]
14 | > 5000 | C#CCOCCOCCOCCOCCOCCC(=O)Nc1ccc(C(=O)c2ccc(NC(=O)CCNC(=O)c3ccccc3)cc2)cc1 [N-(4-{4-[3-(Phenylformamido)propanamido]benzoyl}phenyl)-4,7,10,13,16-pentaoxanonadec-18-ynamide (12)]
